Source: patent publication US11299490B2, “Benzenesulfonamide compounds and their use as therapeutic agents” (Xenon Pharmaceuticals Inc., priority 2016, dated 2022)

Tests used:
[1] = target: NaV1.6 (Homo sapiens (Human), UniProt Q9UQD0); test: Sodium Influx Assay (Flux), NaV1.6
[2] = target: T1, NaV1.5 (Homo sapiens (Human), UniProt Q14524); test: cell-based
[3] = target: NaV1.1 (Homo sapiens (Human), UniProt P35498); test: Sodium Influx Assay (Flux), NaV1.1; format: cell-based; conditions: Trex HEK293 cells, ANG2 dye; arithmetic mean
Description: Sodium Influx Assay (In Vitro Assay)

[4] = target: T1, NaV1.5; test: Electrophysiological Assay (EP, patch voltage clamp), NaV1.5; format: cell-based; conditions: HEK-293 cells, whole-cell patch clamp, inactivated state; arithmetic mean
Experimental: Sodium currents were measured using the patch clamp technique in the whole-cell configuration using either a PatchXpress automated voltage clamp or manually using an Axopatch 200B (Axon Instruments) or Model 2400 (A-M systems) amplifier. […] In some studies, the external sodium was reduced by equimolar replacement with choline. […] All recordings were performed at ambient temperature in a bath chamber with a volume of 150 μL. Control sodium currents were measured in 0.5% DMSO. Controls and representative compounds of the invention were applied to the recording chamber through a 4-pinch or 8-pinch valve bath perfusion system manufactured by ALA Scientific Instruments.
Series resistance compensation was applied (60-80%). […] All statistics in this study are given as mean±SD.
The membrane potential was maintained at a voltage where inactivation of the channel is complete. The voltage is then stepped back to a very negative (Vhold=−150 mV) voltage for 20 ms and then a test pulse is applied to quantify the compound block. […] The percent decrease in sodium current following wash-on of compound was taken as the percent block of sodium channels.

T1 sequence (Q14524 other isoform, or with tags, fused parts or gaps): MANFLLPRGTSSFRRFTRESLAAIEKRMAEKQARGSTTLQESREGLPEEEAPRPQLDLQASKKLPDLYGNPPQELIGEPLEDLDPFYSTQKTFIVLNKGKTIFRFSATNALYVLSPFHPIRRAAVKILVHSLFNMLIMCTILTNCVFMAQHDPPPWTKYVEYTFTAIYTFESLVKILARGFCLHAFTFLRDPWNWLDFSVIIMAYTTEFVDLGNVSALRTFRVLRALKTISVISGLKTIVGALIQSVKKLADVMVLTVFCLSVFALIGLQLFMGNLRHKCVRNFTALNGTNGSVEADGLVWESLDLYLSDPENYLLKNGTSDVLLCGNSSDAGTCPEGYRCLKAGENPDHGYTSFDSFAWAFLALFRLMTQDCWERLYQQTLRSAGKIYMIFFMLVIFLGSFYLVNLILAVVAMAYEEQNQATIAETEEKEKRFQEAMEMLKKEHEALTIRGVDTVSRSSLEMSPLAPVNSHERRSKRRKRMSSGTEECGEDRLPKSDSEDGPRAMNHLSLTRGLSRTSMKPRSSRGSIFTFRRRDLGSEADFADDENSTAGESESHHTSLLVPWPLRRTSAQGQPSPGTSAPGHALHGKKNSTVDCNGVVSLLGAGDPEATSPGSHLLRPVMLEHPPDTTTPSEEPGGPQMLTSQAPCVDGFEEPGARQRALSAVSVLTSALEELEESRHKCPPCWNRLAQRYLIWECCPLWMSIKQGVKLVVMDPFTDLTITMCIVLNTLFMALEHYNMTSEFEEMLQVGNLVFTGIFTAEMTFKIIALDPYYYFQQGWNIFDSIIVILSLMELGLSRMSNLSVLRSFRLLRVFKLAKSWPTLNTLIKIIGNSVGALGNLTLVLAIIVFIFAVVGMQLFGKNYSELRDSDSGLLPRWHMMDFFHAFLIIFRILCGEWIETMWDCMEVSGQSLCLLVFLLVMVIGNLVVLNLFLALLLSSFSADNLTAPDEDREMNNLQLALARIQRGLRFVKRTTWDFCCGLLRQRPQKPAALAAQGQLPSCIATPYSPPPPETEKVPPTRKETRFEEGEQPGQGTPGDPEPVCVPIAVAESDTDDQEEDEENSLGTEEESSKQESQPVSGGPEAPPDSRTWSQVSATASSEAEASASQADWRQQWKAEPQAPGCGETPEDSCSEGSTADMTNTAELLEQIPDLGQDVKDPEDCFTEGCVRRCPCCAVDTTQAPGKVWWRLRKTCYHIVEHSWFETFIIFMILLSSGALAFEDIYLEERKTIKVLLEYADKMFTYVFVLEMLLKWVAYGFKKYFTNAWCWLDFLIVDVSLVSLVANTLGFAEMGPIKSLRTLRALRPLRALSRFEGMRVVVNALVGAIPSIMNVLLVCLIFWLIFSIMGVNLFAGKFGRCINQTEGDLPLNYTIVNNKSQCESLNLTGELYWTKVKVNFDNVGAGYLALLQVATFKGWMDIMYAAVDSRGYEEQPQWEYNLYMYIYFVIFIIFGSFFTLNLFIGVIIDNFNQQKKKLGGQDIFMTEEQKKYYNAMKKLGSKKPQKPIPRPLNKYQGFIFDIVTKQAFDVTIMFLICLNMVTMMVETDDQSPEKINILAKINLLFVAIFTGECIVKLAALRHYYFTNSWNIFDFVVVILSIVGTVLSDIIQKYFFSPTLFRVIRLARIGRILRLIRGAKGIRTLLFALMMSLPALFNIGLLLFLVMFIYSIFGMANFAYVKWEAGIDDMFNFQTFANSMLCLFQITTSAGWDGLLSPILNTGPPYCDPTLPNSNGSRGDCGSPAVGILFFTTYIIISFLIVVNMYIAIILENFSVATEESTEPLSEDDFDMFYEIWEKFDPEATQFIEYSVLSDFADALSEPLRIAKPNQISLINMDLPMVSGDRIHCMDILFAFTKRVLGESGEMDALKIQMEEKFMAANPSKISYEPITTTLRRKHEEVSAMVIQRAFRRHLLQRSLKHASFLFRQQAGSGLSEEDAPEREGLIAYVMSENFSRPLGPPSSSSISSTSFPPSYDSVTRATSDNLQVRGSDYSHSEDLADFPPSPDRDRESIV

| IC50 [1] [µM] | IC50 [3] [µM] | Structure (SMILES) | IC50 [2] [µM] | IC50 [4] [µM] |
| --- | --- | --- | --- | --- |
| 6.86 | 8.44 | C[C@@H]1[C@H](N(C)c2cc(F)c(S(=O)(=O)Nc3cscn3)cc2Cl)CCN1Cc1ccccc1 (racemic) [Example 309, rac-4-(((2R,3R)-1-benzyl-2-methylpyrrolidin-3-yl)(methyl)amino)-5-chloro-2-fluoro-N-(thiazol-4-yl)benzenesulfonamide] | 7.35 |  |
|  |  | Cc1c(N(C)[C@H]2CCN(Cc3ccccc3)C2)cc(F)c(S(=O)(=O)Nc2cscn2)c1F [Example 103, (S)-4-((1-benzylpyrrolidin-3-yl)(methyl)amino)-2,6-difluoro-3-methyl-N-(thiazol-4-yl)benzenesulfonamide 2,2,2-trifluoroacetate] |  | > 30 |
